Our source for the IC50 values is US6589984B1, “Benzofurylpyrone derivatives” (Teijin Limited, priority 1998, dated 2003).

What is called IC50 is the concentration that gives 50% inhibition. Read a high IC50 as a need for much substance.

The first assay deals with Human hepatic cancer cells HepG2. The assay is described as follows: TG production inhibiting activity (14C-acetic acid incorporation into TG) in HepG2 cells. Type of assay: cell-based. Particulars: Homo sapiens, HepG2; group criterion, alternatives: IC50 at least 10 μM and less than 100 μM, or at least 5% and less than 30% inhibition at 1 μM, or at least 30% and less than 50% inhibition at 10 μM. Here is the method:
Human hepatic cancer cells HepG2 were inoculated into a 24-well plate (Costar No. 3524) at 4×10^4 cells/well, and 1 ml of medium (eRDF medium containing 10% bovine serum (Kyokuto Chemical Co.)) was used for 6 day culturing with 5% CO2 at 37° C. After drawing off the supernatant medium, the cells were freshly rinsed with 1 ml of PBS(−) buffer solution (Takara Shuzo) and drawn off. This procedure was repeated twice and then 1 ml of fresh medium (eRDF medium) was added.
6-(benzofuran-2-yl)-3,5-dimethyl-4-hydroxy-2H-pyran-2-one (Example 2) was dissolved in dimethylsulfoxide (DMSO) to prepare a 20 mM sample stock solution. A diluted solution was obtained by diluting the sample solution with DMSO.
To the cells prepared above there were added the sample stock solution or its diluted solution at 5 μl per well and 10 μl of ^14C-acetic acid solution (a solution of Amersham Code No. CFA13 diluted 4.4-fold with PBS(−) buffer), and culturing was carried out for one day with 5% CO2 at 37° C.
After the culturing was completed, the culture solution was removed, and 1 ml of extraction solution (a mixture of n-hexane and isopropyl alcohol at 2:1) was added for extraction treatment on the lipid components in the cells. After the treatment, the extract containing the obtained lipid components was air-dried, the residue was redissolved in 20 μl of a mixed solution of n-hexane and ethyl acetate at 9:1, and the solution was spotted on a thin-layer chromatography plate (S319, Tokyo Kasei) and developed by thin-layer chromatography with the mixed solution mentioned above. After air-drying, the lipid components were colored with iodine vapor, the portion corresponding to TG was cut out, and the amount of TG biosynthesized was measured with a liquid scintillation counter.
Compound `Cc1c(-c2cc3cc(OC(C)c4ccccc4C(F)(F)F)ccc3o2)oc(=O)c(C)c1O` (stereo not shown) [Example 144, 3,5-dimethyl-4-hydroxy-6-(5-(1-(2-(trifluoromethyl)phenyl)ethoxy)benzofuran-2-yl)-2H-pyran-2-one] registered an IC50 of 10 to 100 µM.
`Cc1c(-c2cc3cc(OCc4cc(Cl)ccc4Cl)ccc3o2)oc(=O)c(C)c1O` [Example 155, 6-(5-(2,5-dichlorobenzyloxy)benzofuran-2-yl)-3,5-dimethyl-4-hydroxy-2H-pyran-2-one]: the IC50 fell in the range of 10 to 100 µM.
Still for that read-out and setting: with `Cc1c(-c2cc3cc(OCc4c(Cl)cccc4Cl)ccc3o2)oc(=O)c(C)c1O` [Example 157, 6-(5-(2,6-dichlorobenzyloxy)benzofuran-2-yl)-3,5-dimethyl-4-hydroxy-2H-pyran-2-one] the figure was 10 to 100 µM; with `Cc1c(-c2cc3cc(OCc4ccc5ccccc5c4)ccc3o2)oc(=O)c(C)c1O` [Example 175, 3,5-dimethyl-4-hydroxy-6-(5-(2-naphthylmethoxy)benzofuran-2-yl)-2H-pyran-2-one], 10 to 100 µM; with `Cc1c(-c2cc3cc(OCC4COc5ccccc5O4)ccc3o2)oc(=O)c(C)c1O` (stereo not shown) [Example 177, 6-(5-(1,4-benzodioxan-2-ylmethoxy)benzofuran-2-yl)-3,5-dimethyl-4-hydroxy-2H-pyran-2-one], 10 to 100 µM.
Compound `CCC=CCCOc1ccc2oc(-c3oc(=O)c(C)c(O)c3C)cc2c1` [Example 179, 3,5-dimethyl-6-(5-(3-hexen-1-yloxy)benzofuran-2-yl)-4-hydroxy-2H-pyran-2-one] displayed a 50% inhibitory concentration (IC50) of 10 to 100 µM.
`CC#CCOc1ccc2oc(-c3oc(=O)c(C)c(O)c3C)cc2c1` [Example 181, 6-(5-(2-butyn-1-yloxy)benzofuran-2-yl)-3,5-dimethyl-4-hydroxy-2H-pyran-2-one] had an IC50 of 10 to 100 µM.
On the same count and under the same terms, in the case of `Cc1c(-c2cc3cc(OCC4COC(C)(C)O4)ccc3o2)oc(=O)c(C)c1O` (stereo not shown) [Example 183, 3,5-dimethyl-6-(5-(2,2-dimethyl-1,3-dioxolan-4-ylmethoxy)benzofuran-2-yl)-4-hydroxy-2H-pyran-2-one] it was 10 to 100 µM.
The same measure, in the same setting: with `CCOCCOc1ccc2oc(-c3oc(=O)c(C)c(O)c3C)cc2c1` [Example 185, 3,5-dimethyl-6-(5-(2-ethoxyethoxy)benzofuran-2-yl)-4-hydroxy-2H-pyran-2-one] the figure was 10 to 100 µM.
Still for that read-out and setting: with `Cc1c(-c2cc3cc(OCC4(C)COC4)ccc3o2)oc(=O)c(C)c1O` [Example 187, 3,5-dimethyl-4-hydroxy-6-(5-(3-methyloxetan-3-ylmethoxy)benzofuran-2-yl)-2H-pyran-2-one] the figure was 10 to 100 µM; with `C=CCCCCOc1ccc2oc(-c3oc(=O)c(C)c(O)c3C)cc2c1` [Example 191, 3,5-dimethyl-6-(5-(5-hexen-1-yloxy)benzofuran-2-yl)-4-hydroxy-2H-pyran-2-one], 10 to 100 µM.
As for `Cc1c(-c2cc3cc(OCC(c4ccccc4)c4ccccc4)ccc3o2)oc(=O)c(C)c1O` [Example 195, 3,5-dimethyl-6-(5-(2,2-diphenylethoxy)benzofuran-2-yl)-4-hydroxy-2H-pyran-2-one], the IC50 was 10 to 100 µM.
The same measure, in the same setting: in the case of `COc1ccc(C(Oc2ccc3oc(-c4oc(=O)c(C)c(O)c4C)cc3c2)c2ccc(OC)cc2)cc1` [Example 201, 6-(5-(bis(4-methoxyphenyl)methoxy)benzofuran-2-yl)-3,5-dimethyl-4-hydroxy-2H-pyran-2-one] it was 10 to 100 µM; in that of `Cc1c(-c2cc3cc(OCCCc4ccccc4)ccc3o2)oc(=O)c(C)c1O` [Example 203, 3,5-dimethyl-4-hydroxy-6-(5-(3-phenylpropoxy)benzofuran-2-yl)-2H-pyran-2-one], 10 to 100 µM.
On to `Cc1c(-c2cc3cc(OCC4CCCCC4)ccc3o2)oc(=O)c(C)c1O` [Example 207, 6-(5-(cyclohexylmethoxy)benzofuran-2-yl)-3,5-dimethyl-4-hydroxy-2H-pyran-2-one], for which the IC50 is 10 to 100 µM.
The same measure, in the same setting: in the case of `Cc1c(-c2cc3cc(OCCOCc4ccccc4)ccc3o2)oc(=O)c(C)c1O` [Example 213, 6-(5-(2-(benzyloxy)ethoxy)benzofuran-2-yl)-3,5-dimethyl-4-hydroxy-2H-pyran-2-one] it was 10 to 100 µM.
Still for that read-out and setting: in the case of `CCOC(=O)CCCCCOc1ccc2oc(-c3oc(=O)c(C)c(O)c3C)cc2c1` [Example 217, 3,5-dimethyl-6-(5-(5-(ethoxycarbonyl)pentyloxy)benzofuran-2-yl)-4-hydroxy-2H-pyran-2-one] it was 10 to 100 µM; in that of `Cc1c(-c2cc3cc(OCC4CCCCN4C(=O)OC(C)(C)C)ccc3o2)oc(=O)c(C)c1O` (stereo not shown) [Example 220, 6-(5-(1-t-butoxycarbonylpiperidin-2-ylmethoxy)benzofuran-2-yl)-3,5-dimethyl-4-hydroxy-2H-pyran-2-one], 10 to 100 µM.
`Cc1c(-c2cc3cc(OC4CCN(C(=O)OC(C)(C)C)CC4)ccc3o2)oc(=O)c(C)c1O` [Example 222, 6-(5-(1-t-butoxycarbonylpiperidin-4-yloxy)benzofuran-2-yl)-3,5-dimethyl-4-hydroxy-2H-pyran-2-one] came in with a half-inhibitory concentration (IC50) of 10 to 100 µM.
`Cc1c(-c2cc3cc(OCCCCNC(=O)OC(C)(C)C)ccc3o2)oc(=O)c(C)c1O` [Example 224, 6-(5-(4-(t-butoxycarbonylamino)butoxy)benzofuran-2-yl)-3,5-dimethyl-4-hydroxy-2H-pyran-2-one] registered an IC50 of 10 to 100 µM.
On to `Cc1c(-c2cc3cc(OCc4ccccc4[N+](=O)[O-])ccc3o2)oc(=O)c(C)c1O` [Example 230, 3,5-dimethyl-4-hydroxy-6-(5-(2-nitrobenzyloxy)benzofuran-2-yl)-2H-pyran-2-one], for which the IC50 lay within 10 to 100 µM.

The same assay, now with this note: Homo sapiens, HepG2; group criterion, alternatives: IC50 less than 10 μM, or at least 30% inhibition at 1 μM, or at least 50% inhibition at 10 μM.
`Cc1c(-c2cc3cc(OCc4ccc(Cl)cc4Cl)ccc3o2)oc(=O)c(C)c1O` [Example 153, 6-(5-(2,4-dichlorobenzyloxy)benzofuran-2-yl)-3,5-dimethyl-4-hydroxy-2H-pyran-2-one] returned a concentration for half-maximal inhibition (IC50) of less than 10 µM.
On to `Cc1c(-c2cc3cc(OCc4ccc(Cl)c(Cl)c4)ccc3o2)oc(=O)c(C)c1O` [Example 159, 6-(5-(3,4-dichlorobenzyloxy)benzofuran-2-yl)-3,5-dimethyl-4-hydroxy-2H-pyran-2-one], for which the 50% inhibitory concentration (IC50) is less than 10 µM.
`CCCCOc1ccc(COc2ccc3oc(-c4oc(=O)c(C)c(O)c4C)cc3c2)cc1` [Example 163, 6-(5-(4-n-butoxybenzyloxy)benzofuran-2-yl)-3,5-dimethyl-4-hydroxy-2H-pyran-2-one]: the IC50 was less than 10 µM.
On the same count and under the same terms, in the case of `Cc1c(-c2cc3ccc(OC4CCCc5ccccc54)cc3o2)oc(=O)c(C)c1O` (stereo not shown) [Example 170, 3,5-dimethyl-4-hydroxy-6-(6-(1,2,3,4-tetrahydronaphthalen-1-yloxy)benzofuran-2-yl)-2H-pyran-2-one] it was less than 10 µM; in that of `C#CCOc1ccc2oc(-c3oc(=O)c(C)c(O)c3C)cc2c1` [Example 215, 3,5-dimethyl-4-hydroxy-6-(5-(2-propyn-1-yloxy)benzofuran-2-yl)-2H-pyran-2-one], less than 10 µM.
The same measure, in the same setting: with `Cc1c(-c2cc3cc(OCc4cccc(F)c4)ccc3o2)oc(=O)c(C)c1O` [Example 226, 3,5-dimethyl-6-(5-(3-fluorobenzyloxy)benzofuran-2-yl)-4-hydroxy-2H-pyran-2-one] the figure was less than 10 µM; with `Cc1c(-c2cc3cc(OCc4ccc(F)cc4)ccc3o2)oc(=O)c(C)c1O` [Example 228, 3,5-dimethyl-6-(5-(4-fluorobenzyloxy)benzofuran-2-yl)-4-hydroxy-2H-pyran-2-one], less than 10 µM.
